Measurements taken from US20250381245A1, “METHODS AND COMPOSITIONS OF TREATING CANCER BY MODULATING PALMITOYLATION OF FLOTILLIN-1” (BOARD OF REGENTS, THE UNIVERSITY OF TEXAS SYSTEM, priority 2022, published 2025).
Residues, ends and D or L forms follow the SMILES beside them. *: point of attachment. Cbz = O=C(OCc1ccccc1)*

System: flotillin-1
Test: Flotillin-1 protein level by western blot after chemical inhibition of palmitoylation in triple-negative breast cancer cell lines
Type: cell-based
Details: MDA-MB-231 and SUM 159 triple-negative breast cancer cell lines
Experimental: MDA-MB-231 and SUM 159 triple-negative breast cancer cell lines were treated with drug vehicle (DMSO), (B, C) global palmitoylation inhibitor (2-BP), or 2-BP+a proteasomal inhibitor (MG-132).
Protein lysates were lysed in a 1% SDS lysis buffer containing 2 mM EDTA and 20 mM Tris-HCl (PH 6.8) for 5 minutes and scraped into 1.5 mL collection tubes. Lysates were sonicated using horn sonification for 3×20 seconds each and allowed to recover on ice in between each sonification. Lysates were centrifuged for 5 minutes at 10,000 rpm at 4° C. and supernatants subjected to protein quantification by BCA assay. Lysates were then diluted to 50 ug, resolubilized in 4×SDS loading buffer (200 mM Tris-HCL, 6.8 PH, 8% SDS, 40% glycerol, 0.4% bromophenol blue) and boiled at 95° C. for 7 minutes. Boiled samples were resolved on a 10% SDS-PAGE gel and transferred to a nitrocellulose membrane. Transferred membranes were blocked for 1 hour in 5% non-fat dairy milk (NFDM). Blocked membranes were washed with 1× tris buffer saline+0.1% tween-20 (TBST) prior to the addition of the diluted primary antibody overnight at 4° C. The following day, membranes were washed thrice with TBST for 5 minutes each prior to the addition of rabbit (1:3000) (Cell Signaling Technologies, #7074) or mouse IgG (1:5000) secondary horse radish peroxidase (HRP) conjugated antibody diluted in 5% NFDM for 1 hour. […]

Structure (SMILES): CCCCCCCCCCCCCCC(Br)C(=O)O (centres unmarked) [2-BP, 2-bromopalmitate]
- flotillin-1 protein levels (global palmitoylation inhibitor vs drug vehicle (DMSO)): significantly reduces flotillin-1 protein levels

Structure (SMILES): CC(C)C[C@@H](C=O)NC(=O)[C@H](CC(C)C)NC(=O)[C@H](CC(C)C)NC(=O)OCc1ccccc1 [MG-132] (Cbz-Leu-Leu-Leu-aldehyde)
- flotillin-1 protein levels upon proteasomal inhibition (2-BP + proteasomal inhibitor (MG-132) vs 2-BP alone): restored
